These results are taken from DBAASP.

Assay in all cases: ≥ marks a high value that may be exact or a test limit, other limits are often not marked, values filed in µg/mL are converted to µM
One experiment has as its system Escherichia coli K88.
For experiment [1], the system named is Escherichia coli O157:H7 CICC 21530.
Experiment [2] has as its system Lacticaseibacillus rhamnosus 1.0911.
Experiment [3] relates to Lacticaseibacillus rhamnosus 1.0936.
In experiment [4] the test system is Lacticaseibacillus rhamnosus 1.9021.
The test system of experiment [5] is Lacticaseibacillus rhamnosus 8014.
For experiment [6], the system named is Pseudomonas aeruginosa ATCC 27853.
The subject of experiment [7] is Pseudomonas aeruginosa PAO1.
In experiment [8] the test system is Salmonella enterica subsp. enterica serovar Choleraesuis CVCC 503.
Experiment [9] has as its system Salmonella enterica subsp. enterica serovar Pullorum C79-13.
In experiment [10] the test system is Salmonella enterica subsp. enterica serovar Typhimurium ATCC 14028.
Experiment [11] has as its system Staphylococcus aureus ATCC 29213.
The test system of experiment [12] is Staphylococcus aureus ATCC 43300.
In experiment [13] the test system is Staphylococcus epidermidis ATCC 12228.
The subject of experiment [14] is Streptococcus agalactiae BNCC 185941.
The test system of experiment [15] is Legionella pneumophila Lens.
In experiment [16] the test system is Escherichia coli ATCC 25922.
Experiment [17] concerns Listeria monocytogenes KCTC 19111.
The test system of experiment [18] is Pseudomonas aeruginosa 3241.
Experiment [19] relates to Pseudomonas aeruginosa 4007.
The test system of experiment [20] is Pseudomonas aeruginosa ATCC 15692.
The test system of experiment [21] is Pseudomonas aeruginosa CCARM 2073.
Experiment [22] has as its system Pseudomonas aeruginosa CCARM 2075.
The test system of experiment [23] is Salmonella typhimurium KCTC 1926.
Experiment [24] relates to Staphylococcus aureus 3399.
Experiment [25] has as its system Staphylococcus aureus 3518.
In experiment [26] the test system is Staphylococcus aureus ATCC 25923.
Experiment [27] relates to Staphylococcus aureus CCARM 3125.
Experiment [28] deals with Staphylococcus aureus CCARM 3709.
Experiment [29] deals with Staphylococcus epidermidis KCTC 1917.
The subject of experiment [30] is Acinetobacter baumannii ATCC BAA-1605.
The subject of experiment [31] is Acinetobacter baumannii KCCM 1053.
Experiment [32] has as its system Bacillus subtilis KCTC 3068.
Experiment [33] has as its system Enterococcus faecalis ATCC 51575.
The test system of experiment [34] is Enterococcus faecalis KCCM 11814.
Experiment [35] has as its system Escherichia coli KCTC 1682.
For experiment [36], the system named is Pseudomonas aeruginosa CCARM 2180.
Experiment [37] relates to Pseudomonas aeruginosa KCTC 1637.
Experiment [38] relates to Staphylococcus aureus KCCM 40510.
The test system of experiment [39] is Staphylococcus aureus KCTC 1621.

As a reminder, the MIC is the least concentration at which growth counts as inhibited. Higher therefore signals a need for much substance.

Values after ≈ are worked out from the molar mass of the structure shown. Bounds are passed on as bounds.

`CC(C)C[C@H](NC(=O)CNC(=O)[C@H](CC(C)C)NC(=O)[C@H](Cc1c[nH]c2ccccc12)NC(=O)[C@H](CC(C)C)NC(=O)CNC(=O)[C@H](CC(C)C)NC(=O)[C@H](CCCCN)NC(=O)[C@@H](N)CCCCN)C(=O)N[C@@H](CCCCN)C(=O)N[C@@H](CCCCN)C(N)=O` [KKLGLWLGLKK]: the MIC in the experiment with Escherichia coli K88 is 8 µM (≈ 10.3 µg/mL); in [1] it was 8 µM (≈ 10.3 µg/mL); in experiment [2], at least 128 µM; in experiment [3], at least 128 µM; in [4], at least 128 µM; in experiment [5], at least 128 µM. The MIC in experiment [6] was 32 µM (≈ 41 µg/mL); in experiment [7] it was 64 µM (≈ 82.1 µg/mL); in experiment [8], at least 64 µM; in experiment [9], 8 µM (≈ 10.3 µg/mL); in [10], 64 µM (≈ 82.1 µg/mL); in experiment [11] it was over 128 µM. For the same compound, the minimal inhibitory concentration (MIC) in experiment [12] is over 128 µM; in experiment [13], over 128 µM; in [14], at least 128 µM.
Compound `CC[C@H](C)[C@H](NC(=O)[C@H](CC(C)C)NC(=O)CNC(=O)[C@H](CCCCN)NC(=O)[C@@H](NC(=O)[C@@H](NC(=O)[C@H](CCC(=O)O)NC(=O)[C@H](Cc1ccccc1)NC(=O)[C@@H](NC(=O)[C@H](CCCCN)NC(=O)[C@H](C)NC(=O)[C@@H](NC(=O)[C@@H](NC(=O)[C@H](CC(=O)O)NC(=O)[C@H](C)NC(=O)[C@@H](N)CCSC)C(C)C)[C@@H](C)CC)[C@@H](C)CC)[C@@H](C)CC)C(C)C)C(=O)N[C@@H](CC(=O)O)C(=O)N[C@@H](CCC(N)=O)C(=O)N[C@@H](Cc1ccccc1)C(=O)N[C@H](C(=O)N[C@@H](CCC(N)=O)C(=O)N[C@@H](CCCCN)C(=O)O)[C@@H](C)O` [MADVIAKIFEIVKGLIDQFTQK] showed an MIC in experiment [15] of 1.85 µM (≈ 4.64 µg/mL). This counts as single-digit micromolar.
Consider `CC(C)C[C@H](NC(=O)[C@H](Cc1c[nH]c2ccccc12)NC(=O)[C@H](CCCCN)NC(=O)[C@H](CCCCN)NC(=O)[C@H](CC(C)C)NC(=O)[C@H](Cc1c[nH]c2ccccc12)NC(=O)[C@H](CCCCN)NC(=O)[C@H](CCCCN)NC(=O)[C@H](CC(C)C)NC(=O)[C@H](Cc1c[nH]c2ccccc12)NC(=O)[C@@H](N)CCCCN)C(=O)N[C@@H](CCCCN)C(N)=O` [KWLKKWLKKWLK], for which the MIC in experiment [16] was 1 µM (≈ 1.68 µg/mL); in experiment [17], 2 µM (≈ 3.37 µg/mL); in [18] it was 2 µM (≈ 3.37 µg/mL); in experiment [19], 2 µM (≈ 3.37 µg/mL); in experiment [20], 2 µM (≈ 3.37 µg/mL); in experiment [21], 2 µM (≈ 3.37 µg/mL). Moreover, the MIC was found to be 1 µM (≈ 1.68 µg/mL) in experiment [22]; 2 µM (≈ 3.37 µg/mL) in [23]; 2 µM (≈ 3.37 µg/mL) in [24]; 2 µM (≈ 3.37 µg/mL) in experiment [25]; 2 µM (≈ 3.37 µg/mL) in experiment [26]; 2 µM (≈ 3.37 µg/mL) in experiment [27]. Besides, the MIC in experiment [28] stood at 2 µM (≈ 3.37 µg/mL); in [29], 1 µM (≈ 1.68 µg/mL).
`CC[C@H](C)[C@@H]1NC(=O)[C@H](CCCCN)NC(=O)[C@@H](NC(=O)[C@H](CC(C)C)NC(=O)[C@@H](N)CCCCN)CSSC[C@@H](C(=O)N[C@@H](CCCCN)C(=O)O)NC(=O)[C@H](C(C)C)NC(=O)[C@H](CCCCN)NC(=O)[C@H]([C@@H](C)CC)NC(=O)[C@H](C(C)C)NC(=O)[C@H](C(C)C)NC1=O` [KLCKIVVIKVCK]: the MIC in experiment [30] was at least 64 µM; in [31] it was at least 64 µM; in experiment [32], at least 64 µM; in experiment [33], at least 64 µM; in [34] it was at least 64 µM; in experiment [35], 8 µM (≈ 11 µg/mL). Also, the MIC in experiment [36] is at least 64 µM; in experiment [37] it was at least 64 µM; in [23], at least 64 µM; in [38], at least 64 µM; in [39], at least 64 µM; in experiment [29] it was at least 32 µM.
